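How tested: cells in 96-well plates exposed to compound for 48 hours at five concentrations. TGI: concentration producing complete growth inhibition.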
Legend:
Test in all cases: inhibition of tumour cell growth, NCI panel, 48 h
786-0 renal = tested on: 786-0 renal
A498 renal = tested on: A498 renal
A549 NSCLC = tested on: A549 NSCLC
ACHN renal = tested on: ACHN renal
CAKI-1 renal = tested on: CAKI-1 renal
CCRF-CEM leukemia = tested on: CCRF-CEM leukemia
COLO 205 colon = tested on: COLO 205 colon
DLD-1 colon = tested on: DLD-1 colon
DMS 114 small cell lung = tested on: DMS 114 small cell lung
DMS 273 small cell lung = tested on: DMS 273 small cell lung
EKVX NSCLC = tested on: EKVX NSCLC
HCC-2998 colon = tested on: HCC-2998 colon
HCT-116 colon = tested on: HCT-116 colon
HCT-15 colon = tested on: HCT-15 colon
HL-60(TB) leukemia = tested on: HL-60(TB) leukemia
HOP-18 NSCLC = tested on: HOP-18 NSCLC
HOP-62 NSCLC = tested on: HOP-62 NSCLC
HOP-92 NSCLC = tested on: HOP-92 NSCLC
HT29 colon = tested on: HT29 colon
IGROV1 ovarian = tested on: IGROV1 ovarian
KM12 colon = tested on: KM12 colon
KM20L2 colon = tested on: KM20L2 colon
LXFL 529 NSCLC = tested on: LXFL 529 NSCLC
M14 melanoma = tested on: M14 melanoma
M19-MEL melanoma = tested on: M19-MEL melanoma
MALME-3M melanoma = tested on: MALME-3M melanoma
MOLT-4 leukemia = tested on: MOLT-4 leukemia
NCI-H226 lung = tested on: NCI-H226 lung
NCI-H23 lung = tested on: NCI-H23 lung
NCI-H460 lung = tested on: NCI-H460 lung
NCI-H522 lung = tested on: NCI-H522 lung
OVCAR-3 ovarian = tested on: OVCAR-3 ovarian
OVCAR-4 ovarian = tested on: OVCAR-4 ovarian
OVCAR-8 ovarian = tested on: OVCAR-8 ovarian
RXF 393 renal = tested on: RXF 393 renal
RXF-631 renal = tested on: RXF-631 renal
SF-268 CNS = tested on: SF-268 CNS
SF-295 CNS = tested on: SF-295 CNS
SF-539 CNS = tested on: SF-539 CNS
SK-MEL-2 melanoma = tested on: SK-MEL-2 melanoma
SK-MEL-28 melanoma = tested on: SK-MEL-28 melanoma
SK-MEL-5 melanoma = tested on: SK-MEL-5 melanoma
SK-OV-3 ovarian = tested on: SK-OV-3 ovarian
SN12C renal = tested on: SN12C renal
SNB-19 CNS = tested on: SNB-19 CNS
SNB-75 CNS = tested on: SNB-75 CNS
SNB-78 CNS = tested on: SNB-78 CNS
SR leukemia = tested on: SR leukemia
SW-620 colon = tested on: SW-620 colon
TK-10 renal = tested on: TK-10 renal
U251 CNS = tested on: U251 CNS
UACC-257 melanoma = tested on: UACC-257 melanoma
UACC-62 melanoma = tested on: UACC-62 melanoma
UO-31 renal = tested on: UO-31 renal
XF 498 CNS = tested on: XF 498 CNS

Measured: TGI

CCOC(=O)C(=O)Nc1c(C(C)C)cccc1C(C)C
> 100 µM: all assays above

— PubChem BioAssay (NCI)
